# Assay: Phase 1 single ascending dose study with healthy subjects (adverse events)
# Format: in vivo, human
# Conditions: for No. of subjects reporting AEs / No. of subjects with AE Abdominal pain / No. of subjects with AE Cough / No. of subjects with AE Diarrhoea / No. of subjects with AE Dizziness / No. of subjects with AE Flushing / No. of subjects with AE Headache / No. of subjects with AE Jaw pain / No. of subjects with AE Muscle spasm / No. of subjects with AE Nausea / No. of subjects with AE Neck pain / No. of subjects with AE Oropharyngeal pain / No. of subjects with AE Pain in extremity / No. of subjects with AE Photophobia / No. of subjects with AE Vomiting / Number of Subjects Reporting AEs By Most Direct Relationship to Study Treatment: Definitely not related / Number of Subjects Reporting AEs By Most Direct Relationship to Study Treatment: Possibly related / Number of Subjects Reporting AEs By Most Direct Relationship to Study Treatment: Probably not related / Number of Subjects Reporting AEs By Most Direct Relationship to Study Treatment: Probably related: 6 subjects
# Method: This study was a phase 1, randomized, double-blind, placebo-controlled study of four cohorts of 8 subjects each (2 subjects were assigned to receive placebo, and 6 to receive Compound 1). Each cohort was assigned to receive a single dose level of blinded study medication in an ascending dose fashion; dosing began at 0.1 mg.
# All enrolled subjects received a single oral dose of study medication (Compound 1 or placebo). Dose escalation was slowed or discontinued when predefined safety criteria based on peak plasma exposure levels, blood pressure changes, or adverse events (AEs) were met. […] Two lower dose cohorts were added, in which the doses of Compound 1were 0.05 mg and 0.03 respectively.
# After each cohort was dosed, the following safety parameters were monitored: vital signs, clinical laboratory tests to include serum chemistry, hematology, and urinalysis, 12-lead ECG, plasma Compound 1 concentration, and AEs. Pharmacokinetic parameters were monitored and calculated for Compound 1.
structure (smiles),measurement,setting,value
"O=C(O)COC[C@H]1CC[C@H](COC(=O)N(c2ccccc2)c2ccc(Cl)cc2)CC1 [Compound 1, 2-(((1r,4r)-4-(((4-chlorophenyl)(phenyl)carbamoyloxy)methyl)cyclohexyl)methoxy)acetic acid]",AEs on which dose escalation was discontinued,"2nd cohort, single oral dose 0.2 mg",prolonged nausea and vomiting that was severe in intensity
same,Tolerability of the dose,"single dose 0.1 mg, some subjects experienced nausea, vomiting, headache, and jaw pain",tolerated
same,Tolerability of the dose,single dose 0.2 mg,Intolerable AEs
same,No. of subjects reporting AEs,single oral dose 0.03 mg,2 subjects
same,No. of subjects with AE Abdominal pain,single oral dose 0.03 mg,0 subjects
same,No. of subjects with AE Cough,single oral dose 0.03 mg,0 subjects
same,No. of subjects with AE Diarrhoea,single oral dose 0.03 mg,0 subjects
same,No. of subjects with AE Dizziness,single oral dose 0.03 mg,0 subjects
same,No. of subjects with AE Flushing,single oral dose 0.03 mg,0 subjects
same,No. of subjects with AE Headache,single oral dose 0.03 mg,2 subjects
same,No. of subjects with AE Jaw pain,single oral dose 0.03 mg,0 subjects
same,No. of subjects with AE Muscle spasm,single oral dose 0.03 mg,0 subjects
same,No. of subjects with AE Nausea,single oral dose 0.03 mg,0 subjects
same,No. of subjects with AE Neck pain,single oral dose 0.03 mg,0 subjects
same,No. of subjects with AE Oropharyngeal pain,single oral dose 0.03 mg,0 subjects
same,No. of subjects with AE Pain in extremity,single oral dose 0.03 mg,0 subjects
same,No. of subjects with AE Photophobia,single oral dose 0.03 mg,0 subjects
same,No. of subjects with AE Vomiting,single oral dose 0.03 mg,0 subjects
same,Number of Subjects Reporting AEs By Most Direct Relationship to Study Treatment: Definitely not related,single oral dose 0.03 mg,0 subjects
same,Number of Subjects Reporting AEs By Most Direct Relationship to Study Treatment: Possibly related,single oral dose 0.03 mg,2 subjects
same,Number of Subjects Reporting AEs By Most Direct Relationship to Study Treatment: Probably not related,single oral dose 0.03 mg,0 subjects
same,Number of Subjects Reporting AEs By Most Direct Relationship to Study Treatment: Probably related,single oral dose 0.03 mg,0 subjects
same,No. of subjects reporting AEs,single oral dose 0.05 mg,5 subjects
same,No. of subjects with AE Abdominal pain,single oral dose 0.05 mg,1 subjects
same,No. of subjects with AE Cough,single oral dose 0.05 mg,0 subjects
same,No. of subjects with AE Diarrhoea,single oral dose 0.05 mg,0 subjects
same,No. of subjects with AE Dizziness,single oral dose 0.05 mg,0 subjects
same,No. of subjects with AE Flushing,single oral dose 0.05 mg,1 subjects
same,No. of subjects with AE Headache,single oral dose 0.05 mg,5 subjects
same,No. of subjects with AE Jaw pain,single oral dose 0.05 mg,2 subjects
same,No. of subjects with AE Muscle spasm,single oral dose 0.05 mg,0 subjects
same,No. of subjects with AE Nausea,single oral dose 0.05 mg,1 subjects
same,No. of subjects with AE Neck pain,single oral dose 0.05 mg,0 subjects
same,No. of subjects with AE Oropharyngeal pain,single oral dose 0.05 mg,0 subjects
same,No. of subjects with AE Pain in extremity,single oral dose 0.05 mg,0 subjects
same,No. of subjects with AE Photophobia,single oral dose 0.05 mg,1 subjects
same,No. of subjects with AE Vomiting,single oral dose 0.05 mg,0 subjects
same,Number of Subjects Reporting AEs By Most Direct Relationship to Study Treatment: Definitely not related,single oral dose 0.05 mg,0 subjects
same,Number of Subjects Reporting AEs By Most Direct Relationship to Study Treatment: Possibly related,single oral dose 0.05 mg,5 subjects
same,Number of Subjects Reporting AEs By Most Direct Relationship to Study Treatment: Probably not related,single oral dose 0.05 mg,0 subjects
same,Number of Subjects Reporting AEs By Most Direct Relationship to Study Treatment: Probably related,single oral dose 0.05 mg,0 subjects
same,No. of subjects reporting AEs,single oral dose 0.1 mg,6 subjects
same,No. of subjects with AE Abdominal pain,single oral dose 0.1 mg,1 subjects
same,No. of subjects with AE Cough,single oral dose 0.1 mg,0 subjects
same,No. of subjects with AE Diarrhoea,single oral dose 0.1 mg,0 subjects
same,No. of subjects with AE Dizziness,single oral dose 0.1 mg,1 subjects
same,No. of subjects with AE Flushing,single oral dose 0.1 mg,1 subjects
same,No. of subjects with AE Headache,single oral dose 0.1 mg,5 subjects
same,No. of subjects with AE Jaw pain,single oral dose 0.1 mg,3 subjects
same,No. of subjects with AE Muscle spasm,single oral dose 0.1 mg,0 subjects
same,No. of subjects with AE Nausea,single oral dose 0.1 mg,2 subjects
same,No. of subjects with AE Neck pain,single oral dose 0.1 mg,1 subjects
same,No. of subjects with AE Oropharyngeal pain,single oral dose 0.1 mg,0 subjects
same,No. of subjects with AE Pain in extremity,single oral dose 0.1 mg,0 subjects
same,No. of subjects with AE Photophobia,single oral dose 0.1 mg,0 subjects
same,No. of subjects with AE Vomiting,single oral dose 0.1 mg,2 subjects
same,Number of Subjects Reporting AEs By Most Direct Relationship to Study Treatment: Definitely not related,single oral dose 0.1 mg,1 subjects
same,Number of Subjects Reporting AEs By Most Direct Relationship to Study Treatment: Possibly related,single oral dose 0.1 mg,4 subjects
same,Number of Subjects Reporting AEs By Most Direct Relationship to Study Treatment: Probably not related,single oral dose 0.1 mg,0 subjects
same,Number of Subjects Reporting AEs By Most Direct Relationship to Study Treatment: Probably related,single oral dose 0.1 mg,1 subjects
same,No. of subjects reporting AEs,single oral dose 0.2 mg,6 subjects
same,No. of subjects with AE Abdominal pain,single oral dose 0.2 mg,0 subjects
same,No. of subjects with AE Cough,single oral dose 0.2 mg,0 subjects
same,No. of subjects with AE Diarrhoea,single oral dose 0.2 mg,1 subjects
same,No. of subjects with AE Dizziness,single oral dose 0.2 mg,0 subjects
same,No. of subjects with AE Flushing,single oral dose 0.2 mg,2 subjects
same,No. of subjects with AE Headache,single oral dose 0.2 mg,5 subjects
same,No. of subjects with AE Jaw pain,single oral dose 0.2 mg,1 subjects
same,No. of subjects with AE Muscle spasm,single oral dose 0.2 mg,1 subjects
same,No. of subjects with AE Nausea,single oral dose 0.2 mg,3 subjects
same,No. of subjects with AE Neck pain,single oral dose 0.2 mg,0 subjects
same,No. of subjects with AE Oropharyngeal pain,single oral dose 0.2 mg,1 subjects
same,No. of subjects with AE Pain in extremity,single oral dose 0.2 mg,1 subjects
same,No. of subjects with AE Photophobia,single oral dose 0.2 mg,0 subjects
same,No. of subjects with AE Vomiting,single oral dose 0.2 mg,6 subjects
same,Number of Subjects Reporting AEs By Most Direct Relationship to Study Treatment: Definitely not related,single oral dose 0.2 mg,0 subjects
same,Number of Subjects Reporting AEs By Most Direct Relationship to Study Treatment: Possibly related,single oral dose 0.2 mg,0 subjects
same,Number of Subjects Reporting AEs By Most Direct Relationship to Study Treatment: Probably not related,single oral dose 0.2 mg,0 subjects
same,Number of Subjects Reporting AEs By Most Direct Relationship to Study Treatment: Probably related,single oral dose 0.2 mg,6 subjects
